Patent US4265886A, “Spiroketalins and their applications” (Roecar Holdings (Netherlands Antilles (NV), priority 1978, dated 1981)
Values after ≈ are worked out from the molar mass of the structure shown. Read-outs that look alike come from different tables or passages of the source.

Tests used:
Sprague-Dawley rats [1] = assay: 100 day feeding study, 0,1% in standard laboratory chow; format: in vivo, rat (male Sprague-Dawley); conditions: for mortality: 100 day observation period
Excerpt: (b) Standard laboratory chow was thoroughly mixed with 0,1% diosgenyl glucoside or hecogenyl glucoside and the mixtures were fed to groups of 20 young male Sprague-Dawley rats weighing approximately 150 g. […] Ten rats from each group were autopsied and the organs and some body tissues examined by macroscopic and microscopic techniques.

[2] = system: erysipelas-induced arthritis (corneal lesions); assay: erysipelas-induced arthritis in the rat: corneal lesions (opaquacy); format: in vivo, rat (male Wistar); conditions: for CORNEAL LESIONS Degree of severity: 3×10 mg/kg per day, 5× per week, control 2,34; for CORNEAL LESIONS Present in % of rats, day 1: control 0; for CORNEAL LESIONS Present in % of rats, day 6 / CORNEAL LESIONS Present in % of rats, day 8 / CORNEAL LESIONS Present in % of rats, day 12 / CORNEAL LESIONS Present in % of rats, day 15 / CORNEAL LESIONS Present in % of rats, day 19 / CORNEAL LESIONS Present in % of rats, day 20: control 100
Procedure: (§1) The investigation was carried out according to Schulze et al (17 in Betr. Path., 1975, 154, 1-26 and 27-51). Erysipelas arthritis is reproducible in nearly 100% of the rats given a single subcutaneous injection of E. insidiosa. Erysipelas arthritis always afflicts several joints with the same intensity in both major and minor limb joints, besides the coagulopathy and the pathological changes produced in the cardio-vascular system. Proliferating processes occur after 3 months in all surviving animals subjected to experimental erysipelas arthritis.
(§2) In order to test the spiroketalins of this invention the following parameters of the erysepilas arthritis model were used to evaluate their activities:
Inflammation opaquacy appears in the cornea around the 8th day.
(§3) Male Wistar rats between 155-185 g were used for these trials. The animals, kept in single cages, received a standard rat diet (Ssniff R) and water ad libitum. Room temperature was kept at 22° C., and the relative humidity varied between 50-60%. Daily illumination lasted for 12 hours. The animals had been acclimatized for 10 days prior to the commencement of the investigation.
(§4) An erysopelothrix insidiosa serotype B-strain T28 was used to challenge the animals and a single 2 ml dose (ca 100-200 million germs) was administered subcutaneously. The examined spiroketalins were suspended in sterile physiological saline and administered at the rate of 3×10 mg/kg per day. Treatment continued from the day of challenge, either to the end of the trial or the death of an animal, at the rate of 5×per week.

haemolysis = conditions: cited from earlier work
[3] = system: erysipelas-induced arthritis (aortic thrombi); assay: erysipelas-induced arthritis in the rat: aortic thrombi; format: in vivo, rat (male Wistar); conditions: 3×10 mg/kg per day, 5× per week; for AORTIC THROMBI Present in % of rats: control 90; for AORTIC THROMBI Degree of severity: key 0=No change, 1=Very slight, 2=Slight to medium, 3=Medium to severe, 4=Severe changes, control 2,60 (± 1,35)
Procedure: as §1, §2
Fibrin-rich thrombi develop on aorta intima between the 6th and 11th day. The largest spread extended area can be observed around the 8th day.
as §3, §4
The parameters for aorta thrombi have been evaluated according to the following key originally described by Schulz et al. Beitrag. Path., 154, 1-26 and 27-51, 1975.
KEY FOR CLINICAL AORTA THROMBI FINDINGS
2=Slight to medium changes
3=Medium to severe changes

[4] = system: yeast-induced hind paw oedema; assay: yeast-induced acute paw oedema in rats; format: in vivo, rat; conditions: 500-1000 mg/kg orally or 50-100 mg/kg intraperitoneally, 24 hours before 2% yeast suspension
Procedure: The oral effectiveness of an anti-inflammatory agent is readily shown by administering it to animals (e.g. rats) either orally or parenterally before one of their hind paws is injected with a solution or suspension of an inflammation inducing substance such as kaolin, egg white, formaldehyde, carageenin or yeast. […] Distinct reductions in the acute oedema formation of between 10-40% were observed depending on the dose and route of administration. In order to achieve such reduction with the glucosides of diosgenin, hecogenin and tigogenin doses of 500-1000 mg/kg body mass orally or 50-100 mg/kg intraperitoneally had been administered, 24 hours before the animals were challenged with fresh 2% yeast suspension in physiological saline.

Sprague-Dawley rats [5] = assay: single oral dose animal toxicity, 14 day observation; format: in vivo, rat (male Sprague-Dawley); conditions: single oral doses of 125,0; 312,5; 625,0 and 1250 mg/kg
Procedure: Individually housed groups of ten male Sprague-Dawley rats were treated orally with single doses of hecogenin 3-β-D-glucoside or diosgenin 3β-D-glucoside. The poorly water soluble test substances were made up in an aqueous Tylose^R dispersion for homogeneity.
A suitable concentration which allowed the administration of the relevant dose at the rate of 1,0 ml/100 g body weight was prepared immediately before use. Doses ranging from 125 mg/kg to 1250 mg/kg of the agents were tested. The observation period was 14 days after which the animals were sacrificed and a macroscopic examination of some tissues was carried out. Food and water was offered ad libitum.

physchem = conditions: water
[6] = rats, rabbits and chickens; cited from earlier work
[7] = system: rats, rabbits and chickens; conditions: cited from earlier work

SMILES | mortality (Sprague-Dawley rats [1]; 0,1% in chow) | CORNEAL LESIONS Degree of severity [2] | CORNEAL LESIONS Present in % of rats, day 1 [2] [%] | CORNEAL LESIONS Present in % of rats, day 6 [2] | CORNEAL LESIONS Present in % of rats, day 8 [2] [%] | CORNEAL LESIONS Present in % of rats, day 12 [2] [%] | CORNEAL LESIONS Present in % of rats, day 15 [2] [%] | CORNEAL LESIONS Present in % of rats, day 19 [2] [%] | CORNEAL LESIONS Present in % of rats, day 20 [2] [%] | AORTIC THROMBI Present in % of rats [3] [%] | AORTIC THROMBI Degree of severity [3] | reduction in acute oedema formation [4] | other results
C[C@@H]1CC[C@@]2(OC1)O[C@H]1C[C@H]3[C@@H]4CC=C5C[C@@H](O[C@@H]6O[C@H](CO)[C@@H](O)[C@H](O)[C@H]6O)CC[C@]5(C)[C@H]4CC[C@]3(C)[C@H]1[C@@H]2C [Diosgenyl Glucoside, diosgenyl β-D-glucoside] | No mortality occurred | 1,05 | 0 | 85,7% | 100 | 100 | 50 | 25 | 0 | 44 | 1,33 (± 1,66) | 10-40% | drug-related pathological changes (Sprague-Dawley rats [1]; rat, in vivo): No drug-related pathological changes were detected in any tissues; in vitro haemolytic effects (haemolysis; in vitro, reference (6)): without showing the usual in vitro haemolytic effects; solubility (water solubility; 25° C.): ~5 µg/mL (≈ 8.67 µM); solubility (water solubility; room temperature, colloidal solution): 5 µg/mL (≈ 8.67 µM)
C[C@@H]1CC[C@@]2(OC1)O[C@H]1C[C@H]3[C@@H]4CC[C@H]5C[C@@H](O[C@@H]6O[C@H](CO)[C@@H](O)[C@H](O)[C@H]6O)CC[C@]5(C)[C@H]4CC(=O)[C@]3(C)[C@H]1[C@@H]2C [Hecogenyl Glucoside, hecogenyl β-D-glucoside] | No mortality occurred | 0,89 | 0 | 87,5% | 100 | 100 | 100 | 20 | 0 | 50 | 1,38 (± 1,51) | 10-40% | drug-related pathological changes (Sprague-Dawley rats [1]; 0,1% in chow, autopsy, macroscopic and microscopic): No drug-related pathological changes were detected in any tissues; in vitro haemolytic effects (haemolysis): without showing the usual in vitro haemolytic effects; tolerability (Sprague-Dawley rats [5]): well tolerated; solubility (physchem): ~5 µg/mL (≈ 8.43 µM)
CC[C@H](CC[C@@H](C)[C@H]1CC[C@H]2[C@@H]3CC=C4C[C@@H](O[C@@H]5O[C@H](CO)[C@@H](O)[C@H](O)[C@H]5O)CC[C@]4(C)[C@H]3CC[C@]12C)C(C)C [Sitosteryl-β-D-Glucoside, reference compound] |  | 1,20 | 20 | 90% | 100 | 100 | 17 | 25 | 0 | 70 | 2,00 (± 1,63) |  | 
C[C@@H]1CC[C@@]2(OC1)O[C@H]1C[C@H]3[C@@H]4CC[C@H]5C[C@@H](O[C@@H]6O[C@H](CO)[C@@H](O)[C@H](O)[C@H]6O)CC[C@]5(C)[C@H]4CC[C@]3(C)[C@H]1[C@@H]2C [Tigogenyl Glucoside, tigogenyl β-D-glucoside] |  |  |  |  |  |  |  |  |  |  |  | 10-40% | 
C[C@@H]1CC[C@@]2(OC1)O[C@H]1C[C@H]3[C@@H]4CC=C5C[C@@H](O)CC[C@]5(C)[C@H]4CC[C@]3(C)[C@H]1[C@@H]2C [diosgenin] |  |  |  |  |  |  |  |  |  |  |  |  | serum cholesterol levels [6]: lowers the serum cholesterol levels; toxicity [7]: non-toxic
